Laboratory results as given in ChEMBL document CHEMBL3425442, “Tetrahydroindazoles as Interleukin-2 Inducible T-Cell Kinase Inhibitors. Part II. Second-Generation Analogues with Enhanced Potency, Selectivity, and Pharmacodynamic Modulation in Vivo” (J Med Chem, 2015).
Values after ≈ are worked out from the molar mass of the structure shown. Values joined by “and” are separate entries in the source; they are usually repeats but may differ in a detail not shown here. Identical values can stand only once.

Experiments:
[1] = target: Tyrosine-protein kinase Lck (Homo sapiens, UniProt P06239); experiment: Inhibition of LCK (unknown origin)
Sequence of Tyrosine-protein kinase Lck (P06239 whole entry): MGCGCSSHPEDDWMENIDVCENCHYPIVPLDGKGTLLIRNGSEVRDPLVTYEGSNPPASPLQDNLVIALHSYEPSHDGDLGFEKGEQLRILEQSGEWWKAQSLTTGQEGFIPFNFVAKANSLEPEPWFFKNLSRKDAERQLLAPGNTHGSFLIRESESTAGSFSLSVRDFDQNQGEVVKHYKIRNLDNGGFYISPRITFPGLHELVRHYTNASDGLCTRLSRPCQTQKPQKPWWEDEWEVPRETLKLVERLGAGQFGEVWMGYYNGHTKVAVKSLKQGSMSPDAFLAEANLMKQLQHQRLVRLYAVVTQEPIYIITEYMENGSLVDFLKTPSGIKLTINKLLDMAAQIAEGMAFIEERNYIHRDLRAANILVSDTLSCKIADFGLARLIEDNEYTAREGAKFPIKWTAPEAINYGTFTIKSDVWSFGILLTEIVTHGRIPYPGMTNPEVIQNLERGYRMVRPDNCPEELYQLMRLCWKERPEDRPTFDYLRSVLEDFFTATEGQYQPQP

[2] = 1-octanol-phosphate buffer partition coefficient, log D of the compound at pH 7.4 by UPLC/MS/MS analysis
physchem = settings: aqueous phosphate buffer, pH 7.4, Kinetic_solubility
Description: Kinetic solubility of the compound in aqueous phosphate buffer at pH 7.4 after 24 hrs by HPLC/CLND method

Hepatocyte = experiment: Cytotoxicity against hepatocytes (unknown origin)
[3] = Plasma protein binding in human; format: ADME, cell-free; settings: read-out: PPB (converted)
[4] = Cytotoxicity against human Jurkat T cells without TCR stimulation assessed as cell viability by ATPlite assay
[5] = Permeability in MDCK cells; format: ADME, cell-based, Canis lupus familiaris; settings: dog, read-out: permeability
hERG (KCNH2) = hERG (KCNH2) (Homo sapiens, UniProt Q12809); experiment: Inhibition of human ERG at 10 uM by patch clamp assay relative to control
Sequence of hERG (KCNH2) (Q12809 whole entry): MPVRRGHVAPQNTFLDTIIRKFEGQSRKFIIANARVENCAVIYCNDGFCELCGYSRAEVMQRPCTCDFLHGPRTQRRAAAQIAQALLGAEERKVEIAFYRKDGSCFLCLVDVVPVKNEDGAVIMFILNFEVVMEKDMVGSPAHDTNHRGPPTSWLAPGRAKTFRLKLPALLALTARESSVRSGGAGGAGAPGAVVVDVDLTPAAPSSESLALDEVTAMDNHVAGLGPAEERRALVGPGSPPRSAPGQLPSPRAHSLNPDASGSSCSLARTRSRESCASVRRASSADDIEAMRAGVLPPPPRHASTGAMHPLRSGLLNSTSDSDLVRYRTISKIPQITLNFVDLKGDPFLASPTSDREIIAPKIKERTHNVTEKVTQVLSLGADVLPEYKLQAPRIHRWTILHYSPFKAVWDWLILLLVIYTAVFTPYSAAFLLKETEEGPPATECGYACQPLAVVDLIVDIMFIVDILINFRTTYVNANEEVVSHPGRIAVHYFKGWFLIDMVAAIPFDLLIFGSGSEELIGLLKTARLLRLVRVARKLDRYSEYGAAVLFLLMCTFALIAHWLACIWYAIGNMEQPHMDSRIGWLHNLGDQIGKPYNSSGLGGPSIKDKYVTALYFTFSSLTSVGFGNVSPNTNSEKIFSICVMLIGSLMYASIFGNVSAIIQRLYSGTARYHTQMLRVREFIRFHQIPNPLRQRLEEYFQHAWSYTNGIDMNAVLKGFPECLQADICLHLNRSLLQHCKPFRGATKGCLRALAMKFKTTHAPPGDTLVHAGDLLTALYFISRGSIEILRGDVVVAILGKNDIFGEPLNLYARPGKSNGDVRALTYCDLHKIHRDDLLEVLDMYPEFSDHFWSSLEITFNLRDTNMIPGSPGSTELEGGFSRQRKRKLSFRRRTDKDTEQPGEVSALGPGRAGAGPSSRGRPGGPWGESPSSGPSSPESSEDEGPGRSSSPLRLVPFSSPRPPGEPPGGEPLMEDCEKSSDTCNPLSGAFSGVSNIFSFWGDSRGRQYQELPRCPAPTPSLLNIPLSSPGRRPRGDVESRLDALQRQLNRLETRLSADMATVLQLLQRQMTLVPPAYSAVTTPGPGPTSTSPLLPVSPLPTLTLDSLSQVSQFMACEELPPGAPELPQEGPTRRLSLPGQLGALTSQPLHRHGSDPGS

Mus musculus [6] = experiment: Reduction in serum IL-13 level in C57/Bl6 mouse at 100 mg/kg, ip administered for 1 hr followed by anti-CD3 treatment measured after 1.5 hrs relative to vehicle-treated control; format: functional; parameters: scale not given: the % may be the effect or the level left; settings: route intraperitoneal
Mus musculus [7] = experiment: Reduction in serum IL-2 level in C57/Bl6 mouse at 200 mg/kg, ip administered for 1 hr followed by anti-CD3 treatment measured after 1.5 hrs relative to vehicle-treated control; format: functional; settings: route intraperitoneal
Mus musculus [8] = experiment: Reduction in serum IL-13 level in C57/Bl6 mouse at 30 mg/kg, ip administered for 1 hr followed by anti-CD3 treatment measured after 1.5 hrs relative to vehicle-treated control; format: functional; parameters: scale not given: the % may be the effect or the level left; settings: route intraperitoneal
Mus musculus [9] = experiment: Reduction in serum IL-13 level in C57/Bl6 mouse at 200 mg/kg, ip administered for 1 hr followed by anti-CD3 treatment measured after 1.5 hrs relative to vehicle-treated control; format: functional; parameters: scale not given: the % may be the effect or the level left; settings: route intraperitoneal
Mus musculus [10] = experiment: Reduction in serum IL-2 level in ip dosed C57/Bl6 mouse administered for 1 hr followed by anti-CD3 treatment measured after 1.5 hrs; format: functional, organism-based
[11] = Plasma concentration in C57/Bl6 mouse at 200 mg/kg, ip administered for 1 hr followed by anti-CD3 treatment measured at 2.5 hrs; format: ADME, organism-based; parameters: dose 200 mg/kg, route intraperitoneal
Mus musculus [12] = experiment: Reduction in serum IL-2 level in C57/Bl6 mouse at 100 mg/kg, ip administered for 1 hr followed by anti-CD3 treatment measured after 1.5 hrs relative to vehicle-treated control; format: functional; parameters: scale not given: the % may be the effect or the level left; settings: route intraperitoneal
Mus musculus [13] = experiment: Reduction in serum IL-2 level in C57/Bl6 mouse at 30 mg/kg, ip administered for 1 hr followed by anti-CD3 treatment measured after 1.5 hrs relative to vehicle-treated control; format: functional; parameters: scale not given: the % may be the effect or the level left; settings: route intraperitoneal
[14] = target: 5-hydroxytryptamine receptor 2A (Homo sapiens) (UniProt P28223); experiment: Binding affinity to human 5HT-2A receptor assessed as protein-compound complex at 10 uM relative to control
Sequence of 5-hydroxytryptamine receptor 2A (Homo sapiens) (P28223 whole entry): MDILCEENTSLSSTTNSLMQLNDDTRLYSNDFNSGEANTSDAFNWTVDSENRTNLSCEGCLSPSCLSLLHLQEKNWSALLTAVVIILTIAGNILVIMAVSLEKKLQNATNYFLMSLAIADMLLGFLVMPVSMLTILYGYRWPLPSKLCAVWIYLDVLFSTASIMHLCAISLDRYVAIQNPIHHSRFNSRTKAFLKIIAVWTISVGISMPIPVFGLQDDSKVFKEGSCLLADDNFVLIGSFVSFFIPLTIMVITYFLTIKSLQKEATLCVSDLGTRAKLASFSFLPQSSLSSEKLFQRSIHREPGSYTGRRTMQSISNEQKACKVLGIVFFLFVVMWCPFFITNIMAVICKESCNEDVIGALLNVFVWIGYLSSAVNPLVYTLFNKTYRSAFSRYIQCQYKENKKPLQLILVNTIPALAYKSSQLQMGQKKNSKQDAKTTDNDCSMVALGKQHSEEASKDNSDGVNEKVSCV

[15] = target: D(2) dopamine receptor (Homo sapiens) (UniProt P14416); experiment: Binding affinity to human dopamine D2S receptor assessed as protein-compound complex at 10 uM relative to control
Sequence of D(2) dopamine receptor (Homo sapiens) (P14416 whole entry): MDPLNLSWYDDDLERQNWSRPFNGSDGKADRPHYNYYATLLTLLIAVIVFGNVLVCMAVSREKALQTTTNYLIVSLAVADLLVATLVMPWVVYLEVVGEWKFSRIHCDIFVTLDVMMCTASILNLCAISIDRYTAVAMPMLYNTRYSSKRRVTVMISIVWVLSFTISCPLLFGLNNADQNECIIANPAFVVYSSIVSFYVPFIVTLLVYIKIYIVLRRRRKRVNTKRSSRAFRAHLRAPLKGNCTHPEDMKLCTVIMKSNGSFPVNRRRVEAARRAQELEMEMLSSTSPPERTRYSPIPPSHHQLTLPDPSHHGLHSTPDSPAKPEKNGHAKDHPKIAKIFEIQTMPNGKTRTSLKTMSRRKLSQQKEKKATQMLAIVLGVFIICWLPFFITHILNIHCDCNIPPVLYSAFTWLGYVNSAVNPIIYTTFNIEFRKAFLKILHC

[16] = target: Sodium-dependent serotonin transporter (Homo sapiens) (UniProt P31645); experiment: Binding affinity to human 5-HT transporter assessed as protein-compound complex at 10 uM relative to control
Sequence of Sodium-dependent serotonin transporter (Homo sapiens) (P31645 whole entry, looked up): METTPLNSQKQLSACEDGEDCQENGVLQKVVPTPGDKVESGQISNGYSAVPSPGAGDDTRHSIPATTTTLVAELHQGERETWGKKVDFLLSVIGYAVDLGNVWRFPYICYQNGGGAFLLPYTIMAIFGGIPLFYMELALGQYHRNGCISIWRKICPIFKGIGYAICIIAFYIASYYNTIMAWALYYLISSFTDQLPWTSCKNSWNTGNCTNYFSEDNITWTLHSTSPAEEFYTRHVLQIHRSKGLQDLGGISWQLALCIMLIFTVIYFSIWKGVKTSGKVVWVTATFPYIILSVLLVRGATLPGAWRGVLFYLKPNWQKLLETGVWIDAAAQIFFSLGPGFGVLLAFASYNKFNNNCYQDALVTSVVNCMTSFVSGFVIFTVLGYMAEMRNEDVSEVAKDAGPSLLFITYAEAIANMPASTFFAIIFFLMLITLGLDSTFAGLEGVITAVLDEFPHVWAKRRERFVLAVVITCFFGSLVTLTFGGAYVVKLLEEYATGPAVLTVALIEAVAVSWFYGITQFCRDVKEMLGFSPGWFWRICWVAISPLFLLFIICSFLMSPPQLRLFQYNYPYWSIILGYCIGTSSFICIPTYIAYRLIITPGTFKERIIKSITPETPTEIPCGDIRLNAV

Homo sapiens [17] = organism: Homo sapiens; experiment: Binding affinity to L-type calcium channel verapamil binding site (unknown origin) assessed as protein-compound complex at 10 uM relative to control
[18] = target: D(1A) dopamine receptor (Homo sapiens) (UniProt P21728); experiment: Binding affinity to human dopamine D1 receptor assessed as protein-compound complex at 10 uM relative to control
Sequence of D(1A) dopamine receptor (Homo sapiens) (P21728 whole entry): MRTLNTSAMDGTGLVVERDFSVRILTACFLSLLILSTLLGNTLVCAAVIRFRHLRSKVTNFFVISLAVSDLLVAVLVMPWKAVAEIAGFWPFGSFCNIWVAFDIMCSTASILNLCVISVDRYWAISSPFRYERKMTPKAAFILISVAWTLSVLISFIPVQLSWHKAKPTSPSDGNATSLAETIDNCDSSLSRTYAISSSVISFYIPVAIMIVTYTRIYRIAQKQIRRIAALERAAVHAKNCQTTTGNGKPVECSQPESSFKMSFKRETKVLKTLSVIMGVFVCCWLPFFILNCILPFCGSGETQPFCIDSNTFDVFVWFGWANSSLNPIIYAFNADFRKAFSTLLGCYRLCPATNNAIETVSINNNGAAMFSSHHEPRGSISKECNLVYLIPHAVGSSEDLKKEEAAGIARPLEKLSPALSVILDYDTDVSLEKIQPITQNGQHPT

Homo sapiens [19] = organism: Homo sapiens; experiment: Selectivity ratio of Ki for LCK (unknown origin) to Ki for GST-tagged recombinant full length human ITK

SMILES | Ki [1] | solubility kinetic at 24 h (physchem) | IC50 (Hepatocyte) | IC50 ([4]; Homo sapiens, Jurkat) | inhibition at 10 µM (hERG (KCNH2)) | IC50 ([4]; jurkat) | other results
CC1(C)CCc2c(C(=O)Nc3cnn(Cc4ccccc4)c3)n[nH]c2C1 | 1.8 µM |  |  |  |  |  | 
C[C@@]12Cc3[nH]nc(C(=O)Nc4cnn([C@H](c5ccccc5)[C@H]5CCCCS5(=O)=O)c4)c3C[C@@H]1C2(F)F |  | 3.9 µM (≈ 2.01 µg/mL) | > 100 µM | 12 µM | 6.8% |  | logD [2]: 2.8; fraction unbound [3]: 0.03; Papp [5]: 1.5 ×10⁻⁶ cm/s
CC12Cc3[nH]nc(C(=O)Nc4cnn(Cc5ccccc5)c4)c3CC1C2 (stereo unspecified) | 1.4 µM |  |  |  |  |  | 
CN(C)CC[C@@H](c1ccccc1)n1cc(NC(=O)c2n[nH]c3c2CCC(C)(C)C3)cn1 | 0.34 µM |  | 6.2 µM | 4.7 µM | 88% |  | Activity [14]: 96%; Activity [15]: 96%; Activity [16]: 102%; Activity (Homo sapiens [17]): 88%; Activity [18]: 96%
CC1(C)CCc2c(C(=O)Nc3cnn([C@@H](CCS(C)(=O)=O)c4ccccc4)c3)n[nH]c2C1 | 1.8 µM |  |  | 57 µM |  |  | Ratio Ki (Homo sapiens [19]): 290
CC1(C)CCc2c(C(=O)Nc3cnn([C@H](c4ccccc4)C4CCS(=O)(=O)C4)c3)n[nH]c2C1 (stereo partly specified) |  |  |  | 27 µM |  | > 50 µM | 

Second part, led by results:

Ki [1] | solubility kinetic at 24 h (physchem) | SMILES | IC50 (Hepatocyte) | IC50 ([4]; Homo sapiens, Jurkat) | inhibition at 10 µM (hERG (KCNH2)) | IC50 ([4]; jurkat) | other results
 | 6.5 µM (≈ 3.12 µg/mL) | C[C@@]12Cc3[nH]nc(C(=O)Nc4cnn([C@H](c5ccccc5)C5CCS(=O)(=O)CC5)c4)c3C[C@@H]1C2 | > 100 µM | 29 µM | 34% |  | logD [2]: 3.5; fraction unbound [3]: 0.03; Papp [5]: 4.4 ×10⁻⁶ cm/s
 | 45 µM (≈ 21 µg/mL) | CC1(C)CCc2c(C(=O)Nc3cnn([C@H](c4ccccc4)C4CC[S+]([O-])CC4)c3)n[nH]c2C1 (stereo partly specified) | 83 µM | 20 µM | 3.6% | 30 µM | Activity (Mus musculus [6]): 95%; logD [2]: 3.6; %max (Mus musculus [7]): 98%; Activity (Mus musculus [8]): 62%; Activity (Mus musculus [9]): 100%; Activity (Mus musculus [10]): Dose-dependent effect; fraction unbound [3]: 0.06; concentration at 2.5 h [11]: 80 µM; Activity (Mus musculus [12]): 90%; Activity (Mus musculus [13]): 55%; Papp [5]: 1.9 ×10⁻⁶ cm/s
 | 11 µM (≈ 5.3 µg/mL) | CC1(C)CCc2c(C(=O)Nc3cnn([C@H](c4ccccc4)C4CCCS(=O)(=O)C4)c3)n[nH]c2C1 (stereo partly specified) |  |  |  | 44 µM and 20 µM | 
 | 10 µM (≈ 4.82 µg/mL) | CC1(C)CCc2c(C(=O)Nc3cnn([C@H](c4ccccc4)C4CCCCS4(=O)=O)c3)n[nH]c2C1 (stereo partly specified) |  | > 50 µM |  | 33 µM | 
> 2.5 µM | 4.5 µM (≈ 1.99 µg/mL) | CC1(C)CCc2c(C(=O)Nc3cnn([C@@H](CS(C)(=O)=O)c4ccccc4)c3)n[nH]c2C1 |  | 42 µM |  |  | 
 | 4.3 µM (≈ 2.07 µg/mL) | CC1(C)CCc2c(C(=O)Nc3cnn([C@H](c4ccccc4)C4CCS(=O)(=O)CC4)c3)n[nH]c2C1 |  | 29 µM |  |  | 
